# Measured values from a melting point compilation (Tetko et al.; mined from patent text by program, amines drawn as free bases though some values may be those of a salt).
row,melting point [°C],SMILES
1,> 300,COc1cc2[nH]c(=O)c(C(=O)O)nc2cc1-n1ccc(CNC(=O)Nc2ccc(C(=O)O)cc2)c1
2,193 to 196,CCCn1c(COCC)nc2c(N)nc3ccc(OC(=O)N4CCOCC4)cc3c21
3,68.6 to 69.6,CC1=C(C(O)c2ccc3c(c2)CCN(C(N)=O)C3)C(C)(C)CC1 (stereo unspecified)
4,87 to 92,CN1CCN(c2cc(Cl)cc3c2c(=O)n(Cc2ccccc2Cl)c(=O)n3Cc2ccccc2)CC1
5,75 to 76,O=C1OCCC1C(=O)c1ccccc1[N+](=O)[O-] (stereo unspecified)
6,183 to 185,N#Cc1cc(NC(=O)c2ccc3ccccc3c2)ccc1N1CCC(O)CC1
7,82 to 83,CCOC(=O)C1=C2c3[nH]c4ccc(Cl)cc4c3CCN2CCC1
8,214 to 216,CC1(C)C(N)CN1c1c(F)cc2c(=O)c(C(=O)O)cn(C3CC3)c2c1F (stereo unspecified)
9,164 to 166,Nc1cc(C(=O)O)c(F)c(F)c1F
10,77 to 78.5,COC(=O)c1ccccc1Sc1cccc(O)c1
11,246 to 249,C[C@H]1[C@H](N(C)C(=O)C(F)(F)F)CN1c1c(F)cc2c(=O)c(C(=O)O)cn(C3CC3)c2c1F (relative stereo)
12,195 to 198,CN1N=C2c3ccccc3CCC2C1c1ccncc1 (stereo unspecified)
13,127 to 130,O=C(O)c1cccc(C(=O)c2cc(Cl)cc(C(=O)c3ccccc3O)c2O)c1O
14,109 to 110,CC(C)c1cccc2c1O[C@@H](C(C)C)C(=S)N2CC(=O)O
15,176 to 183,O=C(O)C(c1ccccc1)N1CC(N2C(=O)c3ccccc3C2=O)C1=O (stereo unspecified)
16,283 to 284,COc1ccc(C(=O)Nc2cccc(C(=O)O)c2)c2c1OCCO2
17,240 to 242,CCn1c(=O)c(C(N)=O)c(O)c2ccc(C)nc21
18,92 to 94,COc1ccsc1C1CCN(C[C@H](Cc2ccccc2)NC(=O)C2CCCCC2)CC1
19,118 to 125,CNC(=O)C1(Nc2nc(Nc3cc4c(cc3OC)CCN(CC(=O)N(C)C)CC4)ncc2Cl)CC1
20,90 to 100,CC1CCN(C(=O)c2ccc([C@H]3CC[C@H](NC[C@H](O)COc4ccc(O)c(NS(C)(=O)=O)c4)CC3)cc2)CC1
21,146 to 148,NS(=O)(=O)c1cccc2c1CSC2
22,151 to 153,CCOC(=O)C1=C(CO)NC(SC)=NC1c1ccccc1SC (stereo unspecified)
23,54 to 55,O=C1CCC(c2ccc(Cl)c(Cl)c2)O1 (stereo unspecified)
24,101 to 102,CC(C(=O)O)c1ccc(C2=CCCCC2)cc1 (stereo unspecified)
25,243 to 245,O=C(O)c1ccc2c(c1)N(C1CC1)CNS2(=O)=O
26,179 to 184,CS(=O)(=O)Nc1ccc(Cl)cc1C(=Cc1ccc2ccccc2c1)C(N)=O
27,145 to 147,CC(C)(C)OC(=O)N1[C@@H](Cc2cccc(C3CCC3)c2)C(=O)O[C@H](c2ccccc2)[C@@H]1c1ccccc1
28,> 250,CCCCCc1cc2c(nc(O)n2CC2CCOCC2)c(N)n1

# The remaining lines, values behind:
row,SMILES,melting point [°C]
1,Cc1ccc(-c2nc(C)cc(Oc3ccccc3)n2)cc1,90 to 91
2,CC1=CC2(C=CC1(C)C(Cl)(Cl)Cl)SCC(C(C)(C)C)CS2 (stereo unspecified),141 to 143
3,CONS(=O)(=O)c1ccccc1Cl,92.5 to 94
4,Oc1cc(-c2ccccc2)cc(-c2ccccc2)c1,97
5,COc1ccnc(CSc2nc3ccc(F)cc3[nH]2)c1C,128
6,O=C1c2ccccc2C(O)C1Cc1ncc(C(F)(F)F)cc1Cl (stereo unspecified),174 to 178
7,N#Cc1c(OCC2CO2)cccc1[N+](=O)[O-] (stereo unspecified),131 to 135
8,CCOC(=O)c1nc2c(=O)[nH]c3cc(C(F)(F)F)ccc3n2c1Cn1ccnc1C,> 250
9,C(=Cc1nc(CNc2ccc(CCCCn3ccnn3)cc2)co1)c1ccc2c(c1)OCO2,130 to 131
10,CN1CCN(C)C(c2ccc(Nc3nc(Br)cn(C)c3=O)cc2)C1=O (stereo unspecified),206 to 207
11,CCCCCCCCS(=O)(=O)CCCC(=O)OO,113 to 115
12,O=c1c2c[nH]c3ccccc3c-2nn1-c1cnc2ccccc2c1,> 350
13,CC(=O)CCC(CCC(C)=O)(C(C)=O)C(C)=O,59
14,COC(=O)C1=C(C)NC(C)=C(c2nc(CCl)no2)C1c1cccc([N+](=O)[O-])c1 (stereo unspecified),200 to 202
15,Cc1nc(NC(=O)Nc2ccc(N3CCN(C(=O)Nc4ccc(OCCO)cc4Cl)CC3)nc2)sc1C,184 to 185
16,CONC(c1ccccc1)c1cc(C(C)(C)C)c(O)c(C(C)(C)C)c1 (stereo unspecified),135 to 137
17,CC(=O)ON=C(N)c1ccc(C(=O)N2CCN(C(=O)[C@@H]3CCCN3S(=O)(=O)c3ccc(Cl)c(COc4cccn5c(C)c(C)nc45)c3Cl)CC2)cc1,142 to 145
18,C(#Cc1ccsc1)C1=CCN(Cc2c[nH]c3ncccc23)CC1,203 to 205
19,COc1ccc(Br)cc1-c1cc(-c2ccc(Br)cc2)no1,153 to 154
20,CCOC(=O)NN(C)c1cc(C)c(-c2cccc([N+](=O)[O-])c2)nn1,142 to 144
21,C=C1C(=O)N(C)CCC1(CC(=O)OC)c1cccc(OC)c1 (stereo unspecified),85 to 86
22,O=[N+]([O-])c1cc(Cl)cc2cccnc12,149 to 155

row,SMILES,melting point [°C]
1,Brc1ccccc1Oc1nc2ccccc2n2cncc12,180 to 182
2,CC1=Nc2ccccc2CC(c2ccncc2)N1C (stereo unspecified),159 to 161
3,BrCc1ccc2ccccc2c1Br,106 to 108
4,Cc1c(Br)c(C)c2c(OS(=O)(=O)C(F)(F)F)coc2c1C,54 to 55
5,c1ccc(C(c2ccccc2)N2CCN(CCCOc3ccc4nncn4n3)CC2)cc1,132 to 134
6,CCn1c2ccccc2c2cc3ccccc3c(C=O)c21,95.5 to 96.5
7,COc1cc2c(cc1F)C1(CO2)C(=O)N(Cc2ccccn2)c2ccccc21 (stereo unspecified),142 to 144
8,Cc1cccc(C)c1SC(CC(C)C)c1c(O)cc(-c2ccccc2)oc1=O (stereo unspecified),166 to 167
9,CCC(CC)NC1=CC(CC(C(=O)OC)C(=O)OC)(Nc2c(C)cc(C)cc2C)NC(C)=C1 (stereo unspecified),136 to 138
10,CS(=O)(=O)Nc1cc(C(=O)NNC(=O)c2occ(-c3ccccc3)c2-c2ccccc2)ccc1O,230 to 231
11,CCCCCCCCCCCCCCOc1ccc(CNc2ccccc2)cc1,58 to 59
12,CCc1cc2c([nH]c1=O)c(C)cc1cc(CBr)oc12,237 to 240
13,Cc1cccc(-c2[nH]c(C(C)C)nc2-c2ccc(F)c(-c3c[nH]c(C)n3)c2)n1,230 to 234
14,CC(C)CCCC(C)C1CCC2C3CC=C4CC(OC(=O)C(C)O)CCC4(C)C3CCC12C (stereo unspecified),120 to 122
15,CCN(CC)CCSC1=C(C#N)C(c2cccnc2)(c2ccc(OC)c(OC)c2)C(=O)N1 (stereo unspecified),133 to 135
16,Cc1cc(NC(=O)NC(=O)c2c(Cl)cccc2Cl)cnc1-c1ccccc1,202 to 205
17,Cc1ccc(NC(=N)c2ccccc2)cc1NC(=O)/C=C/c1ccccc1C(F)(F)F,220 to 222
18,CN1CCN(c2cc3c(Cl)cccc3c(=O)[nH]2)CC1,230 to 231
19,CCOC(=O)C(=O)Nc1ccccc1Cn1cc(C(=O)OC)c2ccccc21,174 to 177
20,COc1ccc(-c2nc(C(F)(F)F)cn2-c2ccc(C#N)cc2)cc1,146 to 148
21,COCCOc1ccc(CCCOC(=O)NS(=O)(=O)NCCC(C)C)c(Oc2ncc(C(F)(F)F)cc2Cl)c1,123 to 124
